# Values quoted from earlier work in patent US11324821B2, “Triterpene saponin analogues” (ADJUVANCE TECHNOLOGIES, INC., priority 2017, dated 2022).
# Settings: cited from earlier work
substance,measurement,setting,value
QS-21,tolerated / maximum dose,"cancer patients, above it local erythema and systemic flu-like symptoms",100 to 150 µg
same,maximum dose,in vivo,50 µg
